US20220016060A1, “USE OF SODIUM 2-(3-PENTYLPHENYL)ACETATE IN THE TREATMENT OF ALSTRÖM SYNDROME” (LIMINAL BIOSCIENCES LIMITED, priority 2018, published 2022)
“And” between values parts separate entries of the source, which are not always exact repeats. Equal entries are not always repeated. “Also recorded” adds a separate entry of the source.

Legend:
Assay type in all cases: in vivo, human
[1] = system: ALMS patients; assay: Histological examination of adipocyte tissue, average adipocyte area
Description: The study was a Phase 2, single-centre, single-arm, open-label study of sodium 2-(3-pentylphenyl)acetate administered at a total daily oral dose of 800 mg for up to 72 weeks in subjects with ALMS was undertaken. The initial duration of the study was 24 weeks, and subjects were offered to enrol into an extension phase of 36 or 48 weeks. The schedule of study procedures for the enrolment, intervention, and assessments for participants is outlined in FIG. 1. Sodium 2-(3-pentylphenyl)acetate was formulated in soft gelatine capsules containing 200 mg of Sodium 2-(3-pentylphenyl)acetate (amorphous powder) per capsule, polyethylene glycol 400, National Formulary (NF), hydrochloric acid (for pH adjustment), and water. Histological examination of adipocyte tissue in an ALMS subject (before study drug treatment) was characterized by hypertrophy and coalescence of adipocytes, forming giant vesicular vacuolation/steatosis (FIG. 2A). […] Decreases in average adipocyte area from baseline ranged from 11% to 26%. Of note, the largest increase in average adipocyte area from baseline occurred in Subject 826-001-012 (25%), who had ongoing medical histories of hypothyroidism, myocardial ischemia, T2D, chronic kidney disease, and dyslipidemia. This subject was also characterized as obese with a baseline BMI of 38.13 kg/m^2.

[2] = system: ALMS patients; assay: Enhanced Liver Fibrosis (ELF) blood test; design: increase in ELF test score from baseline / Change from Baseline ELF Test, Median / ELF Test score: scale not given here; details: for Change from Baseline ELF Test, Mean (SD) / Change from Baseline ELF Test, Median / ELF Test score / Severity of Liver Fibrosis Based on ELF Test: 800 mg daily oral; for ELF Test score / Severity of Liver Fibrosis Based on ELF Test: individual subjects
Description: The study was a Phase 2, single-centre, single-arm, open-label study of sodium 2-(3-pentylphenyl)acetate administered at a total daily oral dose of 800 mg for up to 72 weeks in subjects with ALMS was undertaken. The initial duration of the study was 24 weeks, and subjects were offered to enrol into an extension phase of 36 or 48 weeks. The schedule of study procedures for the enrolment, intervention, and assessments for participants is outlined in FIG. 1. Sodium 2-(3-pentylphenyl)acetate was formulated in soft gelatine capsules containing 200 mg of Sodium 2-(3-pentylphenyl)acetate (amorphous powder) per capsule, polyethylene glycol 400, National Formulary (NF), hydrochloric acid (for pH adjustment), and water. The effect of sodium 2-(3-pentylphenyl)acetate on liver histology in ALMS patients was also assessed using the Enhanced Liver Fibrosis (ELF™) blood test. The ELF™ Blood Test combines three serum biomarkers (Hyaluronic acid (HA), Procollagen III amino terminal peptide (PIIINP), and Tissue inhibitor of metalloproteinase 1 (TIMP-1)) which, when correlated, are able to identify a quantifiable level of liver fibrosis.

[3] = system: ALMS patients; assay: Urinary kidney toxicity biomarkers (MCP-1, KIM-1, clusterin, cystatin C, osteopontin); details: analyte/creatinine ratio in urine; 800 mg daily oral
Description: The study was a Phase 2, single-centre, single-arm, open-label study of sodium 2-(3-pentylphenyl)acetate administered at a total daily oral dose of 800 mg for up to 72 weeks in subjects with ALMS was undertaken. The initial duration of the study was 24 weeks, and subjects were offered to enrol into an extension phase of […]. The schedule of study procedures for the enrolment, intervention, and assessments for participants is outlined in FIG. 1. Sodium 2-(3-pentylphenyl)acetate was formulated in soft gelatine capsules containing 200 mg of Sodium 2-(3-pentylphenyl)acetate (amorphous powder) per capsule, polyethylene glycol 400, National Formulary (NF), hydrochloric acid (for pH adjustment), and water. […] The levels of these markers was assessed at baseline and after 24 weeks of treatment with sodium 2-(3-pentylphenyl)acetate in ALMS patients, and the results are reported in Table 15.

[4] = 800 mg, Week 24, mean of subjects
[5] = 800 mg, Week 24, median of subjects
[6] = Subject 826-001-001, 204-day break in treatment

CCCCCc1cccc(CC(=O)[O-])c1.[Na+] [sodium 2-(3-pentylphenyl)acetate]
Average Adipocyte Area, % Change from Baseline, Mean [1, 4]: −9%
Average Adipocyte Area, Mean [1, 4]: 5550.7 μm^2
Average Adipocyte Area, % Change from Baseline, Median [1, 5]: −12%
Average Adipocyte Area, Median [1, 5]: 5195.1 μm^2
subjects in whom average adipocyte area decreased from baseline ([1]; 6/9 subjects, after 24 weeks): 66.7%
largest increase in average adipocyte area from baseline ([1]; Subject 826-001-012, after 24 weeks): 25%
histological examination of adipocyte tissue ([1]; an ALMS subject, after 24 weeks of treatment with 800 mg, FIG. 2B): more distinct adipocytes were seen that were smaller in size with no observed coalescence
subjects in whom ELF test score decreased from baseline ([2]; 6/12 subjects): 50.0%
subjects in whom severity of liver fibrosis based on the ELF test was stable or improved from baseline ([2]; 10/12 subjects): 83.3%
Change from Baseline ELF Test, Mean (SD) ([2]; EP Week 12 (Week 36), N=10): −0.24 (1.056)
Change from Baseline ELF Test, Median ([2]; EP Week 12 (Week 36), N=10): −0.02
Change from Baseline ELF Test, Mean (SD) ([2]; EP Week 24 (Week 48), N=9): −0.22 (1.086)
Change from Baseline ELF Test, Median ([2]; EP Week 24 (Week 48), N=9): −0.13
Change from Baseline ELF Test, Mean (SD) ([2]; EP Week 36 (Week 60), N=8): −0.26 (1.193)
Change from Baseline ELF Test, Median ([2]; EP Week 36 (Week 60), N=8): −0.03
change in severity of liver fibrosis based on ELF test [2, 6]: increase in liver fibrosis from moderate to severe
increase in ELF test score from baseline [2, 6]: 1.36
increase in ELF test score from baseline ([2]; Subject 826-001-004, 30-day break in treatment): 1.17
Change from Baseline ELF Test, Mean (SD) ([2]; Week 12, N=12): 0.02 (1.023)
Change from Baseline ELF Test, Median ([2]; Week 12, N=12): 0.24
Change from Baseline ELF Test, Mean (SD) ([2]; Week 24, N=12): −0.26 (0.933)
Change from Baseline ELF Test, Median ([2]; Week 24, N=12): 0.06
ELF Test score ([2]; EP Week 12 (Week 36)): 9.13 and 8.68 and 7.68 and 8.19 and 6.80 and 9.92 and 8.48 and 11.58 and 8.75 and 8.73
Severity of Liver Fibrosis Based on ELF Test ([2]; EP Week 12 (Week 36)): Mod (moderate fibrosis ≥ 7.7 to < 9.8); also recorded: NTM (None to mild fibrosis < 7.7); also recorded: Sev (severe fibrosis ≥ 9.8)
ELF Test score ([2]; EP Week 24 (Week 48)): 10.30 and 8.00 and 6.98 and 7.45 and 6.95 and 8.36 and 11.14 and 8.76 and 8.74
Severity of Liver Fibrosis Based on ELF Test ([2]; EP Week 24 (Week 48)): Sev (severe fibrosis ≥ 9.8); also recorded: Mod (moderate fibrosis ≥ 7.7 to < 9.8); also recorded: NTM (None to mild fibrosis < 7.7)
ELF Test score ([2]; EP Week 36 (Week 60)): 10.28 and 8.42 and 7.16 and 9.90 and 8.50 and 10.79 and 8.64 and 8.74
Severity of Liver Fibrosis Based on ELF Test ([2]; EP Week 36 (Week 60)): Sev (severe fibrosis ≥ 9.8); also recorded: Mod (moderate fibrosis ≥ 7.7 to < 9.8); also recorded: NTM (None to mild fibrosis < 7.7)
ELF Test score ([2]; Week 12): 8.50 and 8.63 and 9.75 and 7.98 and 7.93 and 7.33 and 10.05 and 9.71 and 10.96 and 8.51 and 11.25 and 9.05
Severity of Liver Fibrosis Based on ELF Test ([2]; Week 12): Mod (moderate fibrosis ≥ 7.7 to < 9.8); also recorded: NTM (None to mild fibrosis < 7.7); also recorded: Sev (severe fibrosis ≥ 9.8)
ELF Test score ([2]; Week 24): 9.31 and 9.02 and 8.60 and 7.14 and 7.26 and 7.31 and 10.39 and 8.41 (2×) and 10.69 and 8.47 and 11.29
Severity of Liver Fibrosis Based on ELF Test ([2]; Week 24): Mod (moderate fibrosis ≥ 7.7 to < 9.8); also recorded: NTM (None to mild fibrosis < 7.7); also recorded: Sev (severe fibrosis ≥ 9.8)
Urinary Clusterin, Mean Fold Change from Baseline to Week 24 [3]: 0.66
Urinary Clusterin, mean change from Baseline to Week 24 (%) [3]: −34%
Urinary Cystatin C, Mean Fold Change from Baseline to Week 24 [3]: 0.75
Urinary Cystatin C, mean change from Baseline to Week 24 (%) [3]: −25%
Urinary KIM-1, Mean Fold Change from Baseline to Week 24 [3]: 0.67
Urinary KIM-1, mean change from Baseline to Week 24 (%) [3]: −33%
Urinary MCP-1, Mean Fold Change from Baseline to Week 24 [3]: 0.85
Urinary MCP-1, mean change from Baseline to Week 24 (%) [3]: −15%
Urinary Osteopontin, Mean Fold Change from Baseline to Week 24 [3]: 0.82
Urinary Osteopontin, mean change from Baseline to Week 24 (%) [3]: −18%
